Test results taken from US9376470B2, “Polypeptide having angiogenesis-inducing activity and antibacterial activity, and use thereof for medical purposes” (FunPep Inc., priority 2008, dated 2016).
Peptide text beside a SMILES is read from it.

System: human vascular endothelial cells and fibroblast cells (co-culture, Angiogenesis Kit KZ-1000)
Settings: polypeptide 10 μg/mL, day 11 of culture
Description: Using AG30-5C as a positive control, the angiogenesis-inducing activity of SR-1 and SR-2 was measured. […] As a negative control, polypeptide-free group (Control) was used.
Cells were cultured at 37° C. under 5% CO2 in a 24-well plate using the special media to which the polypeptide was added. The medium was replaced with a medium containing the same polypeptide on day 4, day 7 and day 9 of culture. On day 11 from the beginning of the culture, the medium was removed and staining was performed using a kit for staining lumina (for CD31 antibody staining) according to the following procedure.
The primary antibody (mouse anti-human CD31 antibody) was 4000-fold diluted with a blocking solution (Dulbecco's phosphate buffered saline (PBS(−)) containing 1% BSA). To each well, 0.5 mL of this primary antibody solution was added, and the plate was incubated for 60 minutes at 37° C. After the completion of the incubation, each well was washed totally 3 times with 1 mL of the blocking solution.
Then, 0.5 mL of a secondary antibody solution (goat anti-mouse IgG/alkaline phosphatase conjugate) 500-fold diluted with the blocking solution was added to each well. The plate was incubated for 60 minutes at 37° C., and thereafter each well was washed 3 times with 1 mL of distilled water. During that period, 2 tablets of BCIP/NBT were dissolved into distilled water, and the obtained solution was filtered through a filter having a pore size of 0.2 μm to prepare a substrate solution. To each well, 0.5 mL of the prepared BCIP/NBT substrate solution was added, and the plate was incubated at 37° C. until the lumina turned to deep purple (typically for 5-10 minutes). After the completion of the incubation, each well was washed 3 times with 1 mL of distilled water. After washing, the washing solution was removed by aspiration, and the plate was left to stand and dry naturally. After drying, photographs of each well were taken under a microscope.
Each of the obtained images was quantified using an angiogenesis quantification software. Computer analysis was carried out on various parameters.

## CC[C@H](C)[C@H](NC(=O)[C@H](CC(C)C)NC(=O)[C@H](CCCCN)NC(=O)[C@H](CC(C)C)NC(=O)[C@@H](N)CCSC)C(=O)N[C@@H](Cc1ccccc1)C(=O)N[C@@H](CC(C)C)C(=O)N[C@@H](Cc1c[nH]cn1)C(=O)N[C@@H](CCCNC(=N)N)C(=O)N[C@@H](CC(C)C)C(=O)N[C@@H](CCCCN)C(=O)N[C@@H](CCCNC(=N)N)C(=O)N[C@@H](CCSC)C(=O)N[C@@H](CCCNC(=N)N)C(=O)N[C@@H](CCCCN)C(=O)N[C@@H](CCCNC(=N)N)C(=O)N[C@@H](CC(C)C)C(=O)N[C@@H](CCCCN)C(=O)N[C@@H](CCCNC(=N)N)C(=O)N[C@@H](CCCCN)C(=O)N[C@@H](CC(C)C)C(=O)N[C@@H](CCCNC(=N)N)C(=O)N[C@@H](Cc1ccccc1)C(=O)N[C@@H](Cc1c[nH]c2ccccc12)C(=O)N[C@@H](Cc1c[nH]cn1)C(=O)N[C@@H](CCCNC(=N)N)C(=O)N[C@@H](CCCCN)C(=O)N[C@@H](CCCNC(=N)N)C(=O)N[C@@H](Cc1ccc(O)cc1)C(=O)N[C@@H](CCCCN)C(=O)O [AG30-5C, reference compound] (H-MLKLIFLHRLKRMRKRLKRKLRFWHRKRYK-OH; N-terminus and C-terminus assumed)
  The Length of Lumina (Percentage when taking Control as 100): 119.1%
